The values below come from patent publication US20040009921A1, “Methods and compositions for the treatment of cancer” (Allergan, Inc., priority 2002, published 2004).

Format in all cases: cell-based
Experiment [1] concerns β-catenin-driven gene transcription in APC-negative colorectal cancer cell line SW480. Briefly: Topflash reporter gene assay in SW480 cells. As for the experimental part: Cultured cells were transfected with 100 ng of reporter gene Topflash® together with expression vectors indicated under each graph. […] (A) Data from HEK293 cells co-transfected with wild type or mutant β-catenin (200 ng) and RXRα (20 ng). (B) CAT, a stable cell line that overexpresses β-catenin (left panel). RBC, a stable cell line that overexpresses both RXRα and β-catenin. (C) SW480, a colorectal cancer cell line, was transfected with 100 ng of Topflash®. The amount of RXRα cotransfected was indicated below the X axis. Reporter activity on the Y axis is expressed as either Luciferase Unit or percentage of activity in cells transfected with Topflash® alone.
For transfection of the HEK293 cell line, cells were seeded at a density of 50,000 cells per well in 24-well plates coated with poly-D-Lysine (Becton Dickinson). […] Harvested cells were lysed, and luciferase activity was measured as previously described (de Wet, J. R., Wood, K. V., DeLuca, M., Helinski, D. R., Subramani, S. (1987) Mol. Cell. Biol. 7, 725-737). In cells transfected with the LacZ control gene, β-galactosidase activity was measured by standard colorimetric assays. Renilla reniformis […] activity was determined using the Dual-Luciferase Reporter 100 Assay System (Promega Corporation, 2800 Woods Hollow Road, Madison Wis. USA 53711). […]

For experiment [2], the system named is β-catenin. Put plainly: Western blotting of β-catenin in CV-1 and Hela cells. The conditions noted are these: CV1 and Hela cells, 0.1 μM, 17 hours. For orientation: Immunoblotting shows a protein as a band on a membrane.
Experiment [3] has as its target T1, RXRα and ΔNβ-catenin interaction (Homo sapiens, UniProt P19793).
T1 sequence (P19793 1-462): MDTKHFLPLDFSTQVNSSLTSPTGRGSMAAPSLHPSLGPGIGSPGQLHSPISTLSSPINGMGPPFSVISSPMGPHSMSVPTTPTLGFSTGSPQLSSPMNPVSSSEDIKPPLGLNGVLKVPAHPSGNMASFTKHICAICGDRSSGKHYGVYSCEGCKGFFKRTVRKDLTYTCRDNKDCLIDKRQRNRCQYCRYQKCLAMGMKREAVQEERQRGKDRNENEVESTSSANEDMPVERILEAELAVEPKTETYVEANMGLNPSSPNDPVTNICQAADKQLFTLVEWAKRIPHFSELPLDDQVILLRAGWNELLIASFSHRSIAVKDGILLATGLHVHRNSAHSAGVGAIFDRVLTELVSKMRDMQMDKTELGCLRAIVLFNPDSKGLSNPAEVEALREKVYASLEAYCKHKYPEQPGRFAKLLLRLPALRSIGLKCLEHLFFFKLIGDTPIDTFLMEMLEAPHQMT
T1 sequence (P35222 51-781 partner): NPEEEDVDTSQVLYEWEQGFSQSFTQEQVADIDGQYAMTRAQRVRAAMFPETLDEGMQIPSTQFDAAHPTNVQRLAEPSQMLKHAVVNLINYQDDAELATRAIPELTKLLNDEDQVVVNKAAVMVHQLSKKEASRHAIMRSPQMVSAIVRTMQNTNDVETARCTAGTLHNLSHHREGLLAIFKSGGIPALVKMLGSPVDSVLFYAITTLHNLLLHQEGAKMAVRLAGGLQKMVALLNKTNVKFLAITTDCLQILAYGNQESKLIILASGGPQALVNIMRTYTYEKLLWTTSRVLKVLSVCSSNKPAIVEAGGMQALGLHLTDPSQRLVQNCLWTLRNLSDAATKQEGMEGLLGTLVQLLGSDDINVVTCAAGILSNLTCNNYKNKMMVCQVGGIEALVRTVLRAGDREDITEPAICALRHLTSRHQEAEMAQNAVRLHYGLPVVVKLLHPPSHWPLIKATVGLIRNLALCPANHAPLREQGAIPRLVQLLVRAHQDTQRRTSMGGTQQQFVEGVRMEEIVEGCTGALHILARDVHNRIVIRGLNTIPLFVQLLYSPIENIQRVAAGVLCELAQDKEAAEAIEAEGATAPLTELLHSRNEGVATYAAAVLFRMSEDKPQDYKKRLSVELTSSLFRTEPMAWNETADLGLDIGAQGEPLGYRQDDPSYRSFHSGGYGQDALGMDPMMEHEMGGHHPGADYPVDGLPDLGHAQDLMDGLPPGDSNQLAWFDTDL
Put plainly: In vivo protein crosslinking and immunoprecipitation. The conditions noted are these: HEK293, 1 μM AGN 4204 or vehicle before DSP crosslinking.
Description: HEK293 cells were transfected with a combination of 8 μg of ΔNβ-catenin (C) and 4 μg of RXRα. […] Cell lysates were subjected to immunoprecipitation using antibodies against the Flag tag in RXRα. Crosslinked molecules in immunoprecipitates were dissociated by reduction with β-mercaptoethanol before Western blotting analysis using HRP-conjugated antibodies against the v5 tag in ΔNβ-catenin (Top panel).
HEK293 cells were cultured to about 80% confluence in 150-mm Biocoat poly-D-Lysine plates (VWR Cat#354550), and then transfected with expression vectors for ΔN-β-catenin, and RXRα using Lipofectamine® Transfection Reagent (Invitrogen). Cells were then cultured in high glucose DMEM medium containing 10% activated charcoal-extracted fetal bovine serum.
The reaction was quenched by adding Tris buffer at pH7.5 to a final concentration of 20 mM. […]
To determine whether RXRs and β-catenin interact with each other, HEK293 cells were transfected with expression vectors for RXRα and/or ΔNβ-catenin. […] After completion of the cross-linking reaction, cell extracts were prepared and analyzed by immunoprecipitation using antibodies against the FLAG epitope in an RXRα-FLAG fusion protein, followed by Western blotting analysis using antibodies against the V5 Tag in ΔNβ-catenin. […]

For `CC(/C=C/[C@@H]1C[C@]1(C)c1ccc2c(c1)C(C)(C)CCC2(C)C)=C\C(=O)O` [AGN 4204], the reporter gene activity result is listed as “not sufficient to produce an effect” in experiment [1] (SW480, low levels of endogenous RXRs only) and “a decrease in reporter gene activity” in experiment [1] (SW480 cotransfected with RXRα, 0.1 μM, 17 hours). For the same molecule, in experiment [2], the “degradation of ΔNβ-catenin protein” value is “susceptible to RXR-mediated degradation”. Moreover, the “interaction between RXRα and ΔNβ-catenin (co-immunoprecipitation)” value in experiment [3] was “ligand-independent”.
